Consider three molecules from patent US8598084B2, “Synergistic herbicide/insecticide composition containing certain pyridine carboxylic acids and certain insecticides” (priority 2010, dated 2013).

Several values for one entry are separate records, joined by “and”; a condition that tells them apart may be missing. Equal entries are not always repeated.

Common to all, as to assay type: in vivo
Data set [1] concerns wheat (Triticum aestivum L; TRZAS). In words: Postemergence crop injury and safening, greenhouse, visual injury vs control. The conditions noted are these: for Ob (observed injury): 35 g/ha alone, crop injury. As for the experimental part: (§1) Evaluation of Postemergence Herbicidal Activity of Mixtures in Cereal Crops
(§2) Seeds of the desired test plant species were planted in Sun Gro MetroMix® 306 planting mixture, which typically has a pH of 6.0 to 6.8 and an organic matter content of about 30 percent, in plastic pots with a surface area of 103.2 square centimeters (cm^2). When required to ensure good germination and healthy plants, a fungicide treatment and/or other chemical or physical treatment was applied. The plants were grown for 7-36 days (d) in a greenhouse with an approximate 14 hour (h) photoperiod which was maintained at about 18° C. during the day and 17° C. during the night. Nutrients and water were added on a regular basis and supplemental lighting was provided with overhead metal halide 1000-Watt lamps as necessary. The plants were employed for testing when they reached the second or third true leaf stage.
(§3) Treatments consisted of an insecticidal compound (as listed in Tables 1 through 18) and the cereal herbicide, 4-amino-3-chloro-6-(4-chloro-2-fluoro-3-methoxyphenyl)pyridine-2-carboxylic acid, alone and in combination. Weighed amounts of esters (methyl) or salts (triethylammonium, TEA) of 4-amino-3-chloro-6-(4-chloro-2-fluoro-3-methoxyphenyl)pyridine-2-carboxylic acid (Compound I) were placed in 25 milliliter (mL) glass vials and dissolved in a volume of 97:3 volume per volume (v/v) acetone/dimethyl sulfoxide (DMSO) to obtain 4.5 milligrams active ingredient per mL (mg ai/mL) concentrated solutions. […] The concentrated solutions of Compound I were diluted to 1.5 mg ai/mL with the addition of 2 volumes of an aqueous mixture containing acetone, water, isopropyl alcohol, DMSO, Agri-dex crop oil concentrate, and Triton® X-77 surfactant in a 64.7:26.0:6.7:2.0:0.7:0.01 v/v ratio. A dilution solution was prepared by mixing 1 volume of 97:3 v/v acetone/DMSO and 2 volumes of an aqueous mixture containing acetone, water, isopropyl alcohol, DMSO, Agri-dex crop oil concentrate, and Triton® X-77 surfactant in a 64.7:26.0:6.7:2.0:0.7:0.01 v/v ratio. Compound requirements are based upon a 12 mL application volume at a rate of 187 liters per hectare (L/ha). The concentrated solutions of the cereal insecticides were prepared following the same procedure. Weighed amounts of insecticide were placed in 25 milliliter (mL) glass vials and dissolved in a volume of 97:3 v/v acetone/DMSO to obtain concentrated insecticide solutions. The concentrated solutions of the safener were prepared following the same procedure. Weighed amounts of safener were placed in 25 mL glass vials and dissolved in a volume of 97:3 v/v acetone/DMSO to obtain concentrated safener solutions. The concentrated solutions were diluted to 0.75 mg/mL with an aqueous mixture of 1.5% v/v of Agri-dex crop oil concentrate.
(§4) Spray solutions of the cereal herbicide and the insecticidal compound mixtures were prepared by adding the concentrated solutions to the appropriate amount of dilution solution to form 12 mL spray solution with active ingredients in combinations. Spray solutions of the cereal herbicide, herbicide safener and the insecticidal compound mixtures were prepared by adding the concentrated solutions to the appropriate amount of dilution solution to form 12 mL spray solution with active ingredients in combinations. Formulated compounds were applied to the plant material with an overhead Mandel track sprayer equipped with 8002E nozzles calibrated to deliver 187 L/ha over an application area of 0.503 square meters (m^2) at a spray height of 18 inches […] above average plant canopy. Control plants were sprayed in the same manner with the solvent blank.
(§5) The treated plants and control plants were placed in a greenhouse as described above and watered by sub-irrigation to prevent wash-off of the test compounds. […]

In data set [2] the test system is barley (Hordeum vulgare L; HORVS). Described as above. Conditions: for Ob (observed injury): 35 g/ha alone, crop injury. As for the experimental part:
as §1, §2, §3, §4, §5

For data set [3], the system named is Russian thistle (Salsola iberica L; SASKR). Put plainly: Postemergence herbicidal activity of mixtures, greenhouse, visual injury vs control. Conditions: for pest or weed control at 35 g/ha: 35 g/ha alone. As to the method: as §1, §2, §3, §4, §5
For data set [4], the system named is wild pansy (Viola tricolor L; VIOTR). The description is as above. The conditions noted are these: for pest or weed control at 35 g/ha: 35 g/ha alone. As to the method: as §1, §2, §3, §4, §5
The test system of data set [5] is kochia (Kochia scoparia L; KCHSC). The description is as above. The conditions noted are these: for pest or weed control at 35 g/ha: 35 g/ha alone. As to the method: as §1, §2, §3, §4, §5
Data set [6] deals with bird's-eye speedwell (Veronica persica L; VERPE). The data set is described as above. Conditions: Veronica persica, post-emergence, read-out: Ob (observed injury); for pest or weed control at 35 g/ha: 35 g/ha alone. As for the experimental part: as §1, §2, §3, §4, §5
Data set [7] concerns Canada thistle (Cirsium arvense L; CIRAR). Described as above. As for the experimental part:
as §1, §2, §3, §4, §5

Data set [8] has as its system redroot pigweed (Amaranthus retroflexus L; AMARE). Described as above. As for the experimental part: as §1, §2, §3, §4, §5
Data set [9] deals with scented mayweed (Matricaria chamomila L; MATCH). Described as above. As for the experimental part:
as §1, §2, §3, §4, §5

The mark [10] stands for this setting: Salsola tragus, post-emergence, read-out: Ob (observed injury).
[11] abbreviates: Viola tricolor, post-emergence, read-out: Ob (observed injury).
Where [12] appears, read: Bassia scoparia, post-emergence, read-out: Ob (observed injury).
Where [13] appears, read: application rate g/ha: Compound I methyl ester 35, Malathion 0, Cloquintocet 0.

Turning to `COc1c(Cl)ccc(-c2cc(N)c(Cl)c(C(=O)O)n2)c1F` [Compound I Acid, 4-Amino-3-chloro-6-(4-chloro-2-fluoro-3-methoxyphenyl)pyridine-2-carboxylic acid], the “Ob (observed injury)” value in data set [1] came to 22%; in data set [2], 15%. For the same molecule, the pest or weed control at 35 g/ha was found to be 89% in data set [3] (setting [10]), 60% in data set [4] (setting [11]), 98% in data set [5] (setting [12]) and 72% in data set [6].

Regarding `COC(=O)c1nc(-c2ccc(Cl)c(OC)c2F)cc(N)c1Cl` [Compound I Methyl ester, 4-amino-3-chloro-6-(4-chloro-2-fluoro-3-methoxyphenyl)pyridine-2-carboxylic acid methyl ester], the “Ob (observed injury)” value in data set [1] is 39% and 41%; in [2], 28% and 32%; in data set [7] (17.5 g/ha alone), 62%; in [8] (17.5 g/ha alone) it was 90%. Moreover, in [1] (setting [13]), the “TRZAS Ob” value worked out at 41. Further, in data set [2] (setting [13]), the “HORVS Ob” value stood at 32. For the same molecule, the pest or weed control at 8.75 g/ha was determined as 71% in data set [3] (Salsola tragus, post-emergence, 8.75 g/ha alone, read-out: Ob (observed injury)); 36% in [4] (Viola tricolor, post-emergence, 8.75 g/ha alone, read-out: Ob (observed injury)); 67% in [9] (Matricaria, post-emergence, 8.75 g/ha alone, read-out: Ob (observed injury)); 79% in data set [5] (Bassia scoparia, post-emergence, 8.75 g/ha alone, read-out: Ob (observed injury)); 36% in [6] (8.75 g/ha alone). In addition, the pest or weed control at 17.5 g/ha was 81% in [3] (Salsola tragus, post-emergence, 17.5 g/ha alone, read-out: Ob (observed injury)); 44% in [4] (Viola tricolor, post-emergence, 17.5 g/ha alone, read-out: Ob (observed injury)); 80% in data set [9] (Matricaria, post-emergence, 17.5 g/ha alone, read-out: Ob (observed injury)); 88% in [5] (Bassia scoparia, post-emergence, 17.5 g/ha alone, read-out: Ob (observed injury)); 47% in data set [6] (17.5 g/ha alone). Besides, the pest or weed control at 35 g/ha in data set [3] (setting [10]) came out at 89%; in data set [4] (setting [11]), 56%; in [9] (Matricaria, post-emergence, 35 g/ha alone, read-out: Ob (observed injury)), 88%; in data set [5] (setting [12]), 97%; in data set [6], 73%. In addition, in data set [3] (setting [13]), the “SASKR Ob” value is reported as 89. In data set [4] (setting [13]), the “VIOTR Ob” value is listed as 56. Also, the “MATCH Ob” value in [9] (setting [13]) was determined as 88. The “KCHSC Ob” value in data set [5] (setting [13]) came out at 97.

Regarding `CC(C)[C@@H](Nc1ccc(C(F)(F)F)cc1Cl)C(=O)OC(C#N)c1cccc(Oc2ccccc2)c1` (stereo partly drawn) [Tau-fluvalinate, cyano(3-phenoxyphenyl)methyl N-[2-chloro-4-(trifluoromethyl)phenyl]-D-valinate, reference compound], the pest or weed control at 48 g/ha in data set [4] (Viola tricolor, post-emergence, 48 g/ha alone, read-out: Ob (observed injury)) was 0%. For the same molecule, the “Ob (observed injury)” value in [7] (48 g/ha alone) and in [8] (48 g/ha alone) was 0% in each case.
